The numbers were not newly measured in patent US20230000899A1, “ALGINATE, POLYLYSINE, AND SEED PRESERVATIVE NUTRITIONAL PRODUCT AND DIGESTIVE AID” (Reflux Gourmet LLC, priority 2021, published 2023), which cites them from elsewhere.

SMILES strings stand for the structures.

In the data set the test system is laboratory mice. Particulars: certain laboratory mice; administered in high concentrations.

On to `Oc1ccc(C=Cc2cc(O)cc(O)c2)cc1` [resveratrol], for which the “extension of life span” value was “up to 50%”.
